Measurements as given in US20150274719A1, “AMINO-SUBSTITUTED IMIDAZO[1,2-A]PYRIDINECARBOXAMIDES AND THEIR USE” (BAYER PHARMA AKTIENGESELLSCHAFT, priority 2012, published 2015).

Molecular target: T1, recombinant guanylate cyclase reporter cell line (Rattus norvegicus, UniProt P19686+P20595)
T1 construct: expressed in transfected cells; host or cells: recombinant reporter cell line
T1 sequence (P19686 1-690): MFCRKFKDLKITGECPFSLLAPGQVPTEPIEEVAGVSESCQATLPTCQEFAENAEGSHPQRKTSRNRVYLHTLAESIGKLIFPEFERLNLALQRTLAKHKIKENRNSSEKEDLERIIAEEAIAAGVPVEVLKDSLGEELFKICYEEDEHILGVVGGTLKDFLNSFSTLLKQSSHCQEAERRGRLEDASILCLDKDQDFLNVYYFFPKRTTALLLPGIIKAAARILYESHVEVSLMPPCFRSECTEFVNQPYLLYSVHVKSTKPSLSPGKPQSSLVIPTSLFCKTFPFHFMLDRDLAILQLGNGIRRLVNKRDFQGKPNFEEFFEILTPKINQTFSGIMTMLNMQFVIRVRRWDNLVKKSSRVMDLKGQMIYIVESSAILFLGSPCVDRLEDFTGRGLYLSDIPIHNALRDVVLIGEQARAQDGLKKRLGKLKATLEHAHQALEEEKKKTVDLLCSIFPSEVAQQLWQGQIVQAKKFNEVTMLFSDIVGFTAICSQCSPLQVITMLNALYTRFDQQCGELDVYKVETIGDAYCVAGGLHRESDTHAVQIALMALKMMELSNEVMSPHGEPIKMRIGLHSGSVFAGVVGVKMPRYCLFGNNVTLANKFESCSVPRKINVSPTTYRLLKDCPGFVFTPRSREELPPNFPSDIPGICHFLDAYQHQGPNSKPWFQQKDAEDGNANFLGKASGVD
T1 sequence (P20595 1-619): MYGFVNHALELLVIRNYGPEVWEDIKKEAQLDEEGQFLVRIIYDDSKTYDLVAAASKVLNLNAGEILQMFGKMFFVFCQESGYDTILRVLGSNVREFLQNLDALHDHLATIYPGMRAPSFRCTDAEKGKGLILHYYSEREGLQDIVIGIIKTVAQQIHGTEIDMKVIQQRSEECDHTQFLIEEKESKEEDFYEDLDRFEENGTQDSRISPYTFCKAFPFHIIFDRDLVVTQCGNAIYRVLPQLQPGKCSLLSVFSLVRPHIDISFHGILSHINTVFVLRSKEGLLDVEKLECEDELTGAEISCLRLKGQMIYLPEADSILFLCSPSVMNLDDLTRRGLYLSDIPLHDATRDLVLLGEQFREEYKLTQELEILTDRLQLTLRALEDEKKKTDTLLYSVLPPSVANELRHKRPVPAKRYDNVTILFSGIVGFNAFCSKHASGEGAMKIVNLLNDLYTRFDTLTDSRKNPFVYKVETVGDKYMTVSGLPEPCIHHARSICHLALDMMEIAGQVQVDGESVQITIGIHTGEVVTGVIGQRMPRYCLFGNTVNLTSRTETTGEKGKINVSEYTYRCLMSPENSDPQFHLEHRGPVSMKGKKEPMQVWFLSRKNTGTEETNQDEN
Test: Action on recombinant guanylate cyclase reporter cell line
Format: cell-based
Conditions: in some cases mean values from individual determinations
Method in brief: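 Reported value is the minimal effective concentration (MEC), in some cases a mean of single runs, taken from a recombinant rat guanylate cyclase reporter cell line.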

MEC (minimal effective concentration) [µM]	SMILES
1.00	Cc1cc(OCc2c(F)cccc2F)c2nc(C)c(C(=O)NC3CCCC(N)C3)n2c1 (centres unmarked) [Example 160, N-(3-aminocyclohexyl)-8-[(2,6-difluorobenzyl)oxy]-2,6-dimethylimidazo[1,2-a]-pyridine-3-carboxamide]
3.00	Cc1cc(OCc2c(F)cccc2F)c2nc(C)c(C(=O)NCCN3CC(N4CCCC4)C3)n2c1 [Example 162, 8-[(2,6-difluorobenzyl)oxy]-2,6-dimethyl-N-{2-[3-(pyrrolidin-1-yl)azetidin-1-yl]ethyl}imidazo[1,2-a]pyridine-3-carboxamide]
0.30	Cc1cc(OCc2c(F)cccc2F)c2nc(C)c(C(=O)NCCN3CCC(F)(F)CC3)n2c1 [Example 163, 8-[(2,6-difluorobenzyl)oxy]-N-[2-(4,4-difluoro-piperidin-1-yl)ethyl]-2,6-dimethylimidazo[1,2-a]pyridine-3-carboxamide]
0.10	Cc1cc(OCc2c(F)cccc2F)c2nc(C)c(C(=O)NCCN(CC(F)F)C3CC3)n2c1 [Example 164, N-{2-[cyclopropyl(2,2-difluoroethyl)amino]ethyl}-8-[(2,6-difluorobenzyl)oxy]-2,6-dimethylimidazo[1,2-a]-pyridine-3-carboxamide]
0.10	Cc1cc(OCc2c(F)cccc2F)c2nc(C)c(C(=O)NCC3(N)CCC3)n2c1 [Example 165, N-[(1-aminocyclobutyl)methyl]-8-[(2,6-difluorobenzyl)oxy]-2,6-dimethylimidazo[1,2-a]-pyridine-3-carboxamide]
1.00	Cc1cc(OCc2c(F)cccc2F)c2nc(C)c(C(=O)NCCN3C[C@@H](C)O[C@@H](C)C3)n2c1 [Example 167, 8-[(2,6-difluorobenzyl)oxy]-N-{2-[(2R,6S)-2,6-dimethylmorpholin-4-yl]ethyl}-2,6-dimethyl-imidazo[1,2-a]pyridine-3-carboxamide]
1.00	Cc1nc2c(OCc3c(F)cccc3F)cccn2c1C(=O)NCCN1CCN(C2CC2)CC1 [Example 168, N-[2-(4-Cyclopropylpiperazin-1-yl)ethyl]-8-[(2,6-difluorobenzyl)oxy]-2-methylimidazo[1,2-a]-pyridine-3-carboxamide]
1.65	Cc1nc2c(OCc3c(F)cccc3F)cccn2c1C(=O)NCCNCC(F)F [Example 169]
3.00	Cc1nc2c(OCc3c(F)cccc3F)cccn2c1C(=O)N[C@H](C)CN1CCOCC1 [Example 170, 8-[(2,6-difluorobenzyl)oxy]-2-methyl-N-[(2R)-1-(morpholin-4-yl)propan-2-yl]imidazo[1,2-a]-pyridine-3-carboxamide]
1.00	Cc1nc2c(OCc3c(F)cccc3F)cccn2c1C(=O)N[C@@H](C)CN1CCOCC1 [Example 171, 8-[(2,6-difluorobenzyl)oxy]-2-methyl-N-[(2S)-1-(morpholin-4-yl)propan-2-yl]imidazo[1,2-a]-pyridine-3-carboxamide]
0.30	Cc1cc(OCc2c(F)cccc2F)c2nc(C)c(C(=O)NC[C@@H]3CCCCN3)n2c1 [Example 172, 8-[(2,6-Difluorobenzyl)oxy]-2,6-dimethyl-N-[(2S)-piperidin-2-ylmethyl]imidazo[1,2-a]pyridine-3-carboxamide]
1.00	Cc1cc(OCc2c(F)cccc2F)c2nc(C)c(C(=O)NCC3(N)COC3)n2c1 [Example 216, N-[(3-Aminooxetan-3-yl)methyl]-8-[(2,6-difluorobenzyl)oxy]-2,6-dimethylimidazo[1,2-a]pyridine-3-carboxamide]
3.00	Cc1cc(OCc2c(F)cccc2F)c2nc(C)c(C(=O)N[C@@H]3CCCC[C@H]3N)n2c1 [Example 251, ent-N-[(1R,2R)-2-Aminocyclohexyl]-8-[(2,6-difluorobenzyl)oxy]-2,6-dimethylimidazo[1,2-a]-pyridine-3-carboxamide]
0.10	CCC(N)(CC)CNC(=O)c1c(C)nc2c(OCc3c(F)cccc3F)cccn12 [Example 253, N-(2-Amino-2-ethylbutyl)-8-[(2,6-difluorobenzyl)oxy]-2-methylimidazo[1,2-a]pyridine-3-carboxamide]
0.30	Cc1cc(OCc2c(F)cccc2F)c2nc(C)c(C(=O)NCCNC(C)(C)C)n2c1 [Example 255, N-[2-(tert-Butylamino)ethyl]-8-[(2,6-difluorobenzyl)oxy]-2,6-dimethylimidazo[1,2-a]pyridine-3-carboxamide]
1.00	CCCC(C)(N)CNC(=O)c1c(C)nc2c(OC(C)c3c(F)cccc3F)cc(C)cn12 (centres unmarked) [Example 257, N-(2-Amino-2-methylpentyl)-8-[1-(2,6-difluorophenyl)ethoxy]-2,6-dimethylimidazo[1,2-a]-pyridine-3-carboxamide]
0.065	COC(=O)[C@@H](N)CCCCNC(=O)c1c(C)nc2c(OCc3c(F)cccc3F)cc(C)cn12 [Example 294, Methyl N^6-({8-[(2,6-difluorobenzyl)oxy]-2,6-dimethylimidazo[1,2-a]pyridin-3-yl}carbonyl)-L-lysinate]
0.10	CCCC(C)(N)CNC(=O)c1c(C(F)(F)F)nc2c(OCc3c(F)cccc3F)cc(C)cn12 (stereo not drawn) [Example 305, ent-N-(2-amino-2-methylpentyl)-8-[(2,6-difluorobenzyl)oxy]-6-methyl-2-(trifluoromethyl)imidazo[1,2-a]pyridine-3-carboxamide]
0.10	CCCC(C)(N)CNC(=O)c1c(C)nc2c(OCc3c(F)cccc3F)cc(Br)cn12 (stereo not drawn) [Example 306, ent-N-(2-amino-2-methylpentyl)-6-bromo-8-[(2,6-difluorobenzyl)oxy]-2-methylimidazo[1,2-a]pyridine-3-carboxamide]
0.30	Cc1cc(OCc2c(F)cccc2F)c2nc(C)c(C(=O)N[C@H]3C[C@H]4CN(C)CCN4C3)n2c1 [Example 314, 8-[(2,6-Difluorobenzyl)oxy]-2,6-dimethyl-N-[(7S,8aS)-2-methyloctahydropyrrolo[1,2-a]pyrazin-7-yl]imidazo[1,2-a]pyridine-3-carboxamide]
0.30	CCC(C)(CN)NC(=O)c1c(C)nc2c(OCc3c(F)ccc(F)c3F)cc(C)cn12 (stereo not drawn) [Example 315, ent-N-(1-amino-2-methylbutan-2-yl)-2,6-dimethyl-8-[(2,3,6-trifluorobenzyl)oxy]imidazo[1,2-a]pyridine-3-carboxamide]
0.30	CCCC(C)(N)CNC(=O)c1c(C)nc2c(OCc3c(F)cccc3F)cccn12 (stereo not drawn) [Example 318, ent-N-(2-amino-2-methylpentyl)-8-[(2,6-difluorobenzyl)oxy]-2-methylimidazo[1,2-a]pyridine-3-carboxamide]
0.30	COC(=O)[C@@H](N)CNC(=O)c1c(C)nc2c(OCc3c(F)cccc3F)cc(C)cn12 [Example 319, Methyl 3-[({8-[(2,6-difluorobenzyl)oxy]-2,6-dimethylimidazo[1,2-a]pyridin-3-yl}carbonyl)amino]-L-alaninate]
0.30	CCCC(C)(N)CNC(=O)c1c(C2CC2)nc2c(OCc3c(F)cccc3F)cc(C)cn12 (stereo not drawn) [Example 322, ent-N-(2-amino-2-methylpentyl)-2-cyclopropyl-8-[(2,6-difluorobenzyl)oxy]-6-methylimidazo[1,2-a]pyridine-3-carboxamide]
0.30	CCCC(C)(N)CNC(=O)c1c(C)nc2c(OCc3c(F)cccc3F)cc(CC)cn12 (stereo not drawn) [Example 323, ent-N-(2-amino-2-methylpentyl)-8-[(2,6-difluorobenzyl)oxy]-6-ethyl-2-methylimidazo[1,2-a]pyridine-3-carboxamide]
1.00	Cc1cc(OCc2c(F)cccc2F)c2nc(C)c(C(=O)N[C@@H]3CC[C@](C)(N)C3(C)C)n2c1 [Example 324, N-[(1R,3S)-3-amino-2,2,3-trimethylcyclopentyl]-8-[(2,6-difluorobenzyl)oxy]-2,6-dimethylimidazo[1,2-a]pyridine-3-carboxamide]
